pIC50: −log10 of the molar value.
Key:
[1] = target: T1, Xanthine oxidase (from bovine milk) (Bos taurus, UniProt P80457); assay: XO assay with 6-MP substrate (6-thiouric acid formation, HPLC); assay type: biochemical; settings: for Effect on 6-TU formation at 0.25 μM: 0.25 μM test compound; for Effect on 6-TU formation at 3 μM: 3 μM test compound; for IC50 (6-MP)/IC50 (Xanthine): ratio of IC50 values, both substrates 5 μM; for Effect on 6-TU formation at 20 μM: 20 μM test compound
T1 construct: Xanthine oxidase (from bovine milk); purchased Sigma-Aldrich; host or cells: bovine milk (natural source)
T1 sequence (P80457 whole entry): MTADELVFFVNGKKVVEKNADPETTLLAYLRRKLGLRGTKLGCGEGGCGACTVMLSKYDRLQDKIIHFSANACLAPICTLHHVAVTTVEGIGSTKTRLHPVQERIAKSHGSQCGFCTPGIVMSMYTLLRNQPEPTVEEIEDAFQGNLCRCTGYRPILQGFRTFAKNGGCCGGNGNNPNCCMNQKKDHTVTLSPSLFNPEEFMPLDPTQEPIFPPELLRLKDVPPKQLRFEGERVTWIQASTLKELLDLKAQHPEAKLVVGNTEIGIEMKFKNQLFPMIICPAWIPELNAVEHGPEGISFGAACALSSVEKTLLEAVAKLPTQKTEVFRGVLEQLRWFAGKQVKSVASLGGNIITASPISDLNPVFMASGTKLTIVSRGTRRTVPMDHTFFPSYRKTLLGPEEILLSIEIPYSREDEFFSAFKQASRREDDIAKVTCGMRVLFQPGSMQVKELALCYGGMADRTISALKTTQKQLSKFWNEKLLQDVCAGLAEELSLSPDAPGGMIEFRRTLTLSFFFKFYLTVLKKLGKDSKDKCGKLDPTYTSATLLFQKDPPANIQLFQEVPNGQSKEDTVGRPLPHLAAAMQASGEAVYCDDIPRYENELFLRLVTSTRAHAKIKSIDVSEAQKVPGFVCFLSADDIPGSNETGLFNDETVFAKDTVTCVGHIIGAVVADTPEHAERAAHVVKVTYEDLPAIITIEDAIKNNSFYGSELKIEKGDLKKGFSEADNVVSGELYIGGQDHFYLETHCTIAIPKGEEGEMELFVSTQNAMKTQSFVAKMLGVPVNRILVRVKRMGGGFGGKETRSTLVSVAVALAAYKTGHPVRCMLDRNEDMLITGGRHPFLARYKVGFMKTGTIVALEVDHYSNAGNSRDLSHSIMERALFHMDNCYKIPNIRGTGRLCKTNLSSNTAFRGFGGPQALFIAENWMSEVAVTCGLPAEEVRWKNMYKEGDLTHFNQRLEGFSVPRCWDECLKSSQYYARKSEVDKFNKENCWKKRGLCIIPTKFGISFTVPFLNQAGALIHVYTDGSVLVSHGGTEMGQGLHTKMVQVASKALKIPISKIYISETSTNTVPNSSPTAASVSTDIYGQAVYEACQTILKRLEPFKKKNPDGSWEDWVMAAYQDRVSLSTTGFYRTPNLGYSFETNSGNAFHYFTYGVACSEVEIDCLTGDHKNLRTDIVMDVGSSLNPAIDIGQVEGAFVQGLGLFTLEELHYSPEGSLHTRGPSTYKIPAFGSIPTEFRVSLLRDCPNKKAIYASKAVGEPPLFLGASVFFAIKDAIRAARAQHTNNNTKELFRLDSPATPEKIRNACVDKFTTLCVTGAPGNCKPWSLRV
Experimental: The incubations were carried out in 0.05 M sodium phosphate buffer (pH 7.5; final volume of incubates: 500 μL). The reaction started with the addition of the enzyme, and was stopped with 30 μL of 6 M HClO4 20, 40, or 60 min later. Thereafter, the samples were vortexed and centrifuged at 14,000× g for 5 min at room temperature. A 300-μL aliquot of the supernatant was carefully removed, after which 36 μL of 1 M KOH was added to these aliquots. Samples were cooled to 4 °C to enhance the precipitation of the formed KClO4, and centrifuged at 14,000× g for 5 min at 4 °C. The supernatants were carefully removed and the substrate together with metabolites were analyzed by HPLC (see details in Section 4.5). 6-MP is oxidized to 6-TX followed by 6-TU in the two-step reaction.
Quantitation of 6-MP, 6-TX, and 6-TU was performed by the previously described method with minor modifications.

[2] = target: T1, Xanthine oxidase (from bovine milk); assay: XO assay with xanthine substrate (uric acid formation, HPLC); assay type: biochemical; settings: for Effect on urate formation at 10 μM: 10 μM flavonoid, 15 min preincubation, 8 min; for Effect on uric acid formation at 20 μM: 20 μM test compound (four-fold vs. substrate)
Experimental: Xanthine (5 μM) was incubated with 0.0012 U/mL XO in the absence or presence of inhibitors (0–20 μM). Incubations were started with the addition of the enzyme (final volume of incubates: 500 μL), and stopped after 4, 8, and 12 min with 30 μL of 6 M HClO4. Thereafter, the samples were vortexed, after which 97 μL of 1 M KOH was added, then samples were cooled to 4 °C and centrifuged. Other experimental conditions were the same as described in Section 4.2. Xanthine and uric acid were quantified by HPLC (see details in Section 4.5).
(§1) Quantification of xanthine, hypoxanthine, and uric acid was performed by the previously described method with minor modifications.

[3] = system: XO; settings: cited from earlier work
[4] = cited from earlier work; for Therapeutic peak plasma concentrations: single 200 mg oral dose of APU
[5] = target: T1, Xanthine oxidase (from bovine milk); assay: XO assay with hypoxanthine substrate (xanthine + uric acid formation, HPLC); assay type: biochemical
Experimental: The experiments were started with the addition of the enzyme and stopped after 4 min with 30 μL of 6 M HClO4. Other experimental conditions were the same as described in Section 4.3. XO-catalyzed oxidation of hypoxanthine results in the formation of xanthine and uric acid in two consecutive steps.
as §1

[6] = cited from earlier work
[7] = cited from earlier work; remark: listed apart in the source
[8] = cited from earlier work; remark: listed apart in the source
[9] = 5 μM 6-MP, 40 min incubation, 6-TU formation, read-out: 6-MP Oxidation IC50
[10] = 5 μM xanthine, 8 min incubation, uric acid formation, read-out: Xanthine Oxidation IC50

COc1ccc(-c2oc3cc(O)cc(O)c3c(=O)c2O)cc1O [TAM, Tamarixetin]
Effect on 6-TU formation at 0.25 μM ([1]; 5 μM 6-MP): significantly decreased
Effect on 6-TU formation at 3 μM ([1]; 5 μM 6-MP): almost completely inhibited
pIC50 [1, 9]: 6.70
IC50 (6-MP)/IC50 (Xanthine) [1]: 1.00
pIC50 [2, 10]: 6.70
Effect on urate formation at 10 μM ([2]; 5 μM xanthine): almost completely abolished

COc1ccc(C(=O)O)c(O)c1 [2H4MBA, 4-Methoxysalicylic acid]
Effect on 6-TU formation at 20 μM ([1]; 5 μM 6-MP): significant decreases
Effect on uric acid formation at 20 μM ([2]; 5 μM xanthine): inhibited of uric acid formation significantly

O=C(O)[C@H]1O[C@@H](Oc2cc(O)c3c(=O)c(O)c(-c4ccc(O)c(O)c4)oc3c2)[C@H](O)[C@@H](O)[C@@H]1O [Q-7-glucuronide]
Inhibition of XO-catalyzed xanthine oxidation [3]: only weak inhibitors

Oc1ncnc2[nH]ncc12 [APU, Allopurinol, reference compound]
Effect on 6-TU formation at 3 μM ([1]; 5 μM 6-MP): only a slight effect
Therapeutic peak plasma concentrations [4]: 35 to 40 µM

O=C(O)CNC(=O)c1ccccc1 [HIPA, Hippuric acid]
Effect on 6-TU formation at 20 μM ([1]; 5 μM 6-MP): significant decreases

O=c1[nH]c(=O)c2c[nH]nc2[nH]1 [Oxipurinol, oxipurinol, reference compound]
pIC50 [1, 9]: 5.00
Therapeutic peak plasma concentrations [4]: 35 to 40 µM
pIC50 [2, 10]: 5.35
pIC50 [5]: < 5.52

O=c1c(OS(=O)(=O)O)c(-c2ccc(O)c(O)c2)oc2cc(O)cc(O)c12 [Q-3-sulfate]
Inhibition of XO-catalyzed xanthine oxidation [3]: inhibited XO only at very high concentrations

O=c1c(O)c(-c2ccc(O)c(O)c2)oc2cc(O)cc(O)c12 [Q, Quercetin]
Serum uric acid levels, human ([6]; 1000 or 2000 mg/day): does not influence the serum uric acid levels
Serum urate, human ([6]; four-week treatment, 500 mg/day): minimal reduction in serum urate
Effect on 6-TU formation at 0.25 μM ([1]; 5 μM 6-MP): only weak inhibitory action
Effect on 6-TU formation at 3 μM ([1]; 5 μM 6-MP): almost completely inhibited
Peak plasma concentrations of total Q ([4]; repeated daily oral administration of 1000 mg Q): low micromolar range
Effect on urate formation at 10 μM ([2]; 5 μM xanthine): almost completely abolished
Serum urate levels in hyperuricemic mice ([7]; 100 mg/kg, hyperuricemic mice): decreased the serum urate levels
Serum urate levels in normal or hyperuricemic mice ([7]; 400 mg/kg orally administered): failed to decrease the serum urate levels
Oral bioavailability [8]: low

O=C(O)Cc1ccc(O)cc1 [4HPAA, 4-hydroxyphenylacetic acid]
Effect on 6-TU formation at 20 μM ([1]; 5 μM 6-MP): significant decreases

O=C(O)CCc1ccc(O)cc1O [324DHPPA, 3-(2,4-Dihydroxyphenyl)propionic acid]
Effect on 6-TU formation at 20 μM ([1]; 5 μM 6-MP): significant decreases

Oc1cccc(O)c1O [PYR, Pyrogallol]
pIC50 [1, 9]: 5.00
Effect on 6-TU formation at 20 μM ([1]; 5 μM 6-MP): significant decreases
inhibition at 20 µM ([1]; 20 μM, 5 μM 6-MP, read-out: Inhibitory effect on 6-MP oxidation at 20 μM): > 50%
IC50 (6-MP)/IC50 (Xanthine) [1]: 5.61
pIC50 [2, 10]: 5.74
Effect on uric acid formation at 20 μM ([2]; 5 μM xanthine): inhibited of uric acid formation significantly
inhibition at 20 µM ([2]; 20 μM, 5 μM xanthine, read-out: Inhibitory effect on xanthine oxidation at 20 μM): > 50%

O=C(O)Cc1ccc(CO)cc1 [4HMPAA, 4-(Hydroxymethyl)phenylacetic acid]
Effect on 6-TU formation at 20 μM ([1]; 5 μM 6-MP): significant decreases

O=C(O)[C@H]1O[C@@H](Oc2ccc(-c3oc4cc(O)cc(O)c4c(=O)c3O)cc2O)[C@H](O)[C@@H](O)[C@@H]1O [Q-4′-glucuronide]
Inhibition of XO-catalyzed xanthine oxidation [3]: similarly strong inhibitors of xanthine oxidation as Q

O=C(O)CCc1cccc(O)c1 [33HPPA, 3-(3-Hydroxyphenyl)propionic acid]
Effect on 6-TU formation at 20 μM ([1]; 5 μM 6-MP): significant decreases

O=C(O)CCc1ccc(O)cc1 [34HPPA, 3-(4-Hydroxyphenyl)propionic acid]
Effect on 6-TU formation at 20 μM ([1]; 5 μM 6-MP): significant decreases

O=C(O)c1ccccc1 [BA, Benzoic acid]
Effect on 6-TU formation at 20 μM ([1]; 5 μM 6-MP): significant decreases

COc1cc(-c2oc3cc(O)cc(O)c3c(=O)c2OC2OC(C(=O)O)C(O)C(O)C2O)ccc1O (stereo not drawn) [I3G, Isorhamnetin-3-glucuronide]
pIC50 [1, 9]: < 4.70
Effect on 6-TU formation at 20 μM ([1]; 5 μM 6-MP): did not inhibit
pIC50 [2, 10]: < 4.70
Effect on uric acid formation at 20 μM ([2]; 5 μM xanthine): did not inhibit

O=C(O)c1ccc(O)cc1 [4HBA, 4-Hydroxybenzoic acid]
Effect on 6-TU formation at 20 μM ([1]; 5 μM 6-MP): significant decreases

O=C(O)/C=C/c1cccc(O)c1 [3CA, 3-Coumaric acid]
Effect on 6-TU formation at 20 μM ([1]; 5 μM 6-MP): significant decreases

O=C(O)CCc1ccccc1 [3PPA, 3-Phenylpropionic acid]
Effect on 6-TU formation at 20 μM ([1]; 5 μM 6-MP): significant decreases

CC(=O)c1ccc(O)cc1O [24DHAP, 2,4-Dihydroxyacetophenon]
Effect on 6-TU formation at 20 μM ([1]; 5 μM 6-MP): significant decreases

O=C(O)C1OC(Oc2c(-c3ccc(O)c(O)c3)oc3cc(O)cc(O)c3c2=O)C(O)C(O)C1O (stereo not drawn) [Q3G, Quercetin-3-glucuronide]
Inhibition of XO-catalyzed xanthine oxidation [3]: only weak inhibitors
pIC50 [1, 9]: < 4.70
Effect on 6-TU formation at 20 μM ([1]; 5 μM 6-MP): did not inhibit
pIC50 [2, 10]: < 4.70
Effect on uric acid formation at 20 μM ([2]; 5 μM xanthine): did not inhibit

COc1cc(-c2oc3cc(O)cc(O)c3c(=O)c2O)ccc1O [IR, Isorhamnetin]
pIC50 [1]: 6.22
Effect on 6-TU formation at 3 μM ([1]; 5 μM 6-MP): almost completely inhibited
IC50 (6-MP)/IC50 (Xanthine) [1]: 0.86
pIC50 [2]: 6.15
Effect on urate formation at 10 μM ([2]; 5 μM xanthine): almost completely abolished

O=c1c(O)c(-c2ccc(O)c(OS(=O)(=O)O)c2)oc2cc(O)cc(O)c12 [Q3′S, Quercetin-3′-sulfate]
Effect on 6-TU formation at 0.25 μM ([1]; 5 μM 6-MP): significantly decreased
Effect on 6-TU formation at 3 μM ([1]; 5 μM 6-MP): almost completely inhibited
pIC50 [1, 9]: 6.30
IC50 (6-MP)/IC50 (Xanthine) [1]: 1.25
pIC50 [2, 10]: 6.40
Effect on urate formation at 10 μM ([2]; 5 μM xanthine): almost completely abolished
pIC50 ([5]; 5 μM hypoxanthine, 4 min incubation, xanthine + uric acid formation, read-out: Hypoxanthine oxidation IC50): 6.68

COc1ccc(CC(=O)O)cc1O [3H4MPAA, 3-Hydroxy-4-methoxyphenylacetic acid]
Effect on 6-TU formation at 20 μM ([1]; 5 μM 6-MP): significant decreases

O=C(O)[C@H]1O[C@@H](Oc2cc(-c3oc4cc(O)cc(O)c4c(=O)c3O)ccc2O)[C@H](O)[C@@H](O)[C@@H]1O [Q-3′-glucuronide]
Inhibition of XO-catalyzed xanthine oxidation [3]: similarly strong inhibitors of xanthine oxidation as Q

O=C(O)c1ccc(O)cc1O [24DHBA, 2,4-Dihydroxybenzoic acid]
Effect on 6-TU formation at 20 μM ([1]; 5 μM 6-MP): significant decreases

O=C(O)Cc1ccccc1O [2HPAA, 2-Hydroxyphenylacetic acid]
Effect on 6-TU formation at 20 μM ([1]; 5 μM 6-MP): significant decreases

Reference: article PMC6600370 (International Journal of Molecular Sciences, 2019)
